Laboratory results from ChEMBL document CHEMBL4376833, “Influence of Non-natural Cationic Amino Acids on the Biological Activity Profile of Innate Defense Regulator Peptides” (J Med Chem, 2019).
Activity calls are given as the source filed them. How the calls were made is not given here. Non-standard residues stand in square brackets, D forms with d. Residues, ends and D or L forms follow the SMILES beside them. hArg = N=C(N)NCCCC[C@H](N)C(=O)O; Agp = N=C(N)NC[C@H](N)C(=O)O; Orn = NCCC[C@H](N)C(=O)O; Dab = NCC[C@H](N)C(=O)O; Dap = NC[C@H](N)C(=O)O

Experiments:
[1] = tested on: Staphylococcus aureus; assay: Antibiofilm activity against methicillin-resistant Staphylococcus aureus assessed as inhibition of biofilm formation incubated for overnight by crystal violet staining based microtiter plate assay; type: functional, organism-based
[2] = tested on: Staphylococcus aureus; assay: Antibiofilm activity against methicillin-resistant Staphylococcus aureus assessed as inhibition of biofilm formation by measuring residual biofilm growth incubated for overnight at 10-fold dilution by crystal violet staining based microtiter plate assay relative to control; type: functional
[3] = tested on: Staphylococcus aureus; assay: Antibacterial activity against methicillin-resistant Staphylococcus aureus assessed as alteration in bacterial growth incubated for overnight by microtiter plate based spectrophotometric analysis; type: functional, organism-based

| Compound | inhibition [1] | residual biofilm growth (% of control) [2] | Activity [3] |
| --- | --- | --- | --- |
| CC[C@H](C)[C@H](NC(=O)[C@H](CCCNC(=N)N)NC(=O)[C@@H](NC(=O)[C@H](C)NC(=O)[C@@H](NC(=O)[C@@H](NC(=O)[C@H](CC(C)C)NC(=O)[C@H](CCCNC(=N)N)NC(=O)[C@@H](N)C(C)C)[C@@H](C)CC)C(C)C)C(C)C)C(=O)N[C@@H](Cc1c[nH]c2ccccc12)C(=O)N[C@@H](CCCNC(=N)N)C(=O)N[C@@H](CCCCNC(=N)N)C(N)=O (H-VRLIVAVRIWR[hArg]-NH2) | Dose-dependent effect | 8.5% | Active |
| H-VRLIVAVRIKRR-NH2 | Dose-dependent effect | 44.7% | Active |
| CC[C@H](C)[C@H](NC(=O)[C@H](CCN)NC(=O)[C@@H](NC(=O)[C@H](C)NC(=O)[C@@H](NC(=O)[C@@H](NC(=O)[C@H](CC(C)C)NC(=O)[C@H](CCCNC(=N)N)NC(=O)[C@@H](N)C(C)C)[C@@H](C)CC)C(C)C)C(C)C)C(=O)N[C@@H](Cc1c[nH]c2ccccc12)C(=O)N[C@@H](CCCNC(=N)N)C(=O)N[C@@H](CCCNC(=N)N)C(N)=O (H-VRLIVAV[Dab]IWRR-NH2) | Dose-dependent effect | 103.9% | Active |
| H-VRKIVAVRIWRR-NH2 | Dose-dependent effect | 88.8% | Active |
| CC[C@H](C)[C@H](NC(=O)[C@H](CCCNC(=N)N)NC(=O)[C@@H](NC(=O)[C@H](C)NC(=O)[C@@H](NC(=O)[C@H](CN)NC(=O)[C@H](CC(C)C)NC(=O)[C@H](CCCNC(=N)N)NC(=O)[C@@H](N)C(C)C)C(C)C)C(C)C)C(=O)N[C@@H](Cc1c[nH]c2ccccc12)C(=O)N[C@@H](CCCNC(=N)N)C(=O)N[C@@H](CCCNC(=N)N)C(N)=O (H-VRL[Dap]VAVRIWRR-NH2) | Dose-dependent effect | 108.3% | Active |
| CC[C@H](C)[C@H](NC(=O)[C@H](CC(C)C)NC(=O)[C@H](CCCNC(=N)N)NC(=O)[C@@H](N)C(C)C)C(=O)N[C@@H](CNC(=N)N)C(=O)N[C@@H](C)C(=O)N[C@H](C(=O)N[C@@H](CCCNC(=N)N)C(=O)N[C@H](C(=O)N[C@@H](Cc1c[nH]c2ccccc12)C(=O)N[C@@H](CCCNC(=N)N)C(=O)N[C@@H](CCCNC(=N)N)C(N)=O)[C@@H](C)CC)C(C)C (H-VRLI[Agp]AVRIWRR-NH2) | Dose-dependent effect | 99.9% | Active |
| H-VRLRVAVRIWRR-NH2 | Dose-dependent effect | 15% | Active |
| CC[C@H](C)[C@H](NC(=O)[C@H](CCCNC(=N)N)NC(=O)[C@@H](NC(=O)[C@H](C)NC(=O)[C@@H](NC(=O)[C@@H](NC(=O)[C@H](CCCN)NC(=O)[C@H](CCCNC(=N)N)NC(=O)[C@@H](N)C(C)C)[C@@H](C)CC)C(C)C)C(C)C)C(=O)N[C@@H](Cc1c[nH]c2ccccc12)C(=O)N[C@@H](CCCNC(=N)N)C(=O)N[C@@H](CCCNC(=N)N)C(N)=O (H-VR[Orn]IVAVRIWRR-NH2) | Dose-dependent effect | 99.3% | Active |
| H-VRLIKAVRIWRR-NH2 | Dose-dependent effect | 102% | Active |
| H-VRLIVAVKIWRR-NH2 | Dose-dependent effect | 17.9% | Active |
| CC[C@H](C)[C@H](NC(=O)[C@H](CCCNC(=N)N)NC(=O)[C@@H](NC(=O)[C@H](CN)NC(=O)[C@@H](NC(=O)[C@@H](NC(=O)[C@H](CC(C)C)NC(=O)[C@H](CCCNC(=N)N)NC(=O)[C@@H](N)C(C)C)[C@@H](C)CC)C(C)C)C(C)C)C(=O)N[C@@H](Cc1c[nH]c2ccccc12)C(=O)N[C@@H](CCCNC(=N)N)C(=O)N[C@@H](CCCNC(=N)N)C(N)=O (H-VRLIV[Dap]VRIWRR-NH2) | Dose-dependent effect | 34.1% | Active |
| CC[C@H](C)[C@H](NC(=O)[C@H](CCCNC(=N)N)NC(=O)[C@@H](NC(=O)[C@H](C)NC(=O)[C@@H](NC(=O)[C@@H](NC(=O)[C@H](CC(C)C)NC(=O)[C@H](CCCNC(=N)N)NC(=O)[C@@H](N)CCN)[C@@H](C)CC)C(C)C)C(C)C)C(=O)N[C@@H](Cc1c[nH]c2ccccc12)C(=O)N[C@@H](CCCNC(=N)N)C(=O)N[C@@H](CCCNC(=N)N)C(N)=O (H-[Dab]RLIVAVRIWRR-NH2) | Dose-dependent effect | 14.2% | Active |
| H-VKLIVAVRIWRR-NH2 | Dose-dependent effect | 7.6% | Active |
| CC[C@H](C)[C@H](NC(=O)[C@H](CCCNC(=N)N)NC(=O)[C@@H](NC(=O)[C@H](C)NC(=O)[C@@H](NC(=O)[C@@H](NC(=O)[C@H](CCCCNC(=N)N)NC(=O)[C@H](CCCNC(=N)N)NC(=O)[C@@H](N)C(C)C)[C@@H](C)CC)C(C)C)C(C)C)C(=O)N[C@@H](Cc1c[nH]c2ccccc12)C(=O)N[C@@H](CCCNC(=N)N)C(=O)N[C@@H](CCCNC(=N)N)C(N)=O (H-VR[hArg]IVAVRIWRR-NH2) | Dose-dependent effect | 108.6% | Active |
| CC[C@H](C)[C@H](NC(=O)[C@H](CCCNC(=N)N)NC(=O)[C@@H](NC(=O)[C@H](C)NC(=O)[C@@H](NC(=O)[C@@H](NC(=O)[C@H](CC(C)C)NC(=O)[C@H](CCCNC(=N)N)NC(=O)[C@@H](N)C(C)C)[C@@H](C)CC)C(C)C)C(C)C)C(=O)N[C@@H](Cc1c[nH]c2ccccc12)C(=O)N[C@@H](CCCNC(=N)N)C(=O)N[C@@H](CN)C(N)=O (H-VRLIVAVRIWR[Dap]-NH2) | Dose-dependent effect | 11.9% | Active |
| CC[C@H](C)[C@H](NC(=O)[C@H](CCCNC(=N)N)NC(=O)[C@@H](NC(=O)[C@H](C)NC(=O)[C@@H](NC(=O)[C@@H](NC(=O)[C@H](CC(C)C)NC(=O)[C@H](CCCNC(=N)N)NC(=O)[C@@H](N)C(C)C)[C@@H](C)CC)C(C)C)C(C)C)C(=O)N[C@@H](CCCCNC(=N)N)C(=O)N[C@@H](CCCNC(=N)N)C(=O)N[C@@H](CCCNC(=N)N)C(N)=O (H-VRLIVAVRI[hArg]RR-NH2) | Dose-dependent effect | 37.2% | Active |
| CC[C@H](C)[C@H](NC(=O)[C@H](CCCNC(=N)N)NC(=O)[C@@H](NC(=O)[C@H](C)NC(=O)[C@@H](NC(=O)[C@@H](NC(=O)[C@H](CC(C)C)NC(=O)[C@H](CCCN)NC(=O)[C@@H](N)C(C)C)[C@@H](C)CC)C(C)C)C(C)C)C(=O)N[C@@H](Cc1c[nH]c2ccccc12)C(=O)N[C@@H](CCCNC(=N)N)C(=O)N[C@@H](CCCNC(=N)N)C(N)=O (H-V[Orn]LIVAVRIWRR-NH2) | Dose-dependent effect | 13.2% | Active |
